From patent US7598067B2, “PDEs and uses thereof” (priority 2000, dated 2009)
“And” between values parts separate entries of the source, which are not always exact repeats. Identical values can stand only once. Like-named read-outs stand apart in the source and are kept apart here.

Columns and labels:
TbPDE2B = TbPDE2B (Trypanosoma brucei, UniProt Q9GQU6); test: Phosphodiesterase assay, recombinant TbPDE2B expressed in HEK 293 cells; format: biochemical; conditions: for inhibition of recombinant TbPDE2B, in words: 1 μM [3H] cAMP, cGMP up to 200 μM
Protocol: Expression of T. brucei PDE. The ORF sequence for T. brucei PDE was subcloned into the pcDNA 3.1-TOPO vector (Invitrogen) according to the manual (Eukaryotic TOPO TA Cloning, version C) and plasmid DNA purified as described above. Human embryonic kidney 293 (HEK 293) cells were transfected with 12 μg of DNA in 60 μl of GenePORTER Transfection Reagent (Gene Therapy Systems, San Diego, Calif.) in 100-mm dishes and kept at 37° C. in 5% CO2 for 24 h. After this period fresh medium was added, and incubated under the same conditions for an additional 24 h. The same amount of pcDNA vector containing the sequence for the Green Fluorescent Protein (GFP) was transfected under identical conditions as a positive control for expression and as a negative control for PDE activity. Two plates were harvested at a time and homogenized with 1 ml of homogenization buffer containing 40 mM Tris-HCl, pH 7.5; 15 mM benzamidine; 15 mM 2-mercaptoethanol; 1 μg/ml pepstatin A; 1 μg/ml leupeptin and 5 mM EDTA. The cell suspension was immediately subjected to sonication (3×5 s) on ice. One volume of glycerol and 1 mg/ml of bovine serum albumin were added immediately to the homogenate.
Phosphodiesterase assay. […]

PDE 8 = conditions: read-out: PDE Selectivity (IC50); cited from earlier work
PDE 6 = conditions: read-out: PDE Selectivity (IC50); cited from earlier work
[1] = system: total PDE activity of trypanosomal cell extracts; test: Total PDE activity in trypanosomal cell extracts; format: biochemical, Trypanosoma brucei
From the text: Chemical validation of the TbPDE2 family as a potential drug target. One of the novel PDEs of the invention, TbPDE2A, was expressed as a recombinant protein and was characterized in detail (see above). […].

TbPDE2A [2] = target: T1, TbPDE2A (Trypanosoma brucei, UniProt Q9GTN9); test: Phosphodiesterase assay, recombinant TbPDE2A in yeast lysates; format: biochemical
Protocol: Yeast cell lysis. Yeast cells grown to mid- to end-log phase in SC-leu medium were collected, resuspended quickly in an original volume of prewarmed YPD medium and incubated for an additional 3 h at 30° C. in order to maximize protein expression. Cells were then harvested, washed once in water and once in HBBB buffer (Hank's balanced salt solution, containing 50 mM HEPES, pH 7.5). The washed cell pellet was suspended in an equal volume of HBB containing a protease inhibitor cocktail (Complete™, Roche Molecular Biochemicals). […] The cell lysate was clarified by centrifugation for 15 min at 15,000×g.
Phosphodiesterase Assay. […] […] Incubation was at 30° C. for 20 min. […] The precipitates were filtered through GF-C glass fiber fitters and filters were washed 3 times with ice-cold 1 mM NaOH/100 mM NaCl and were then dried and counted in liquid scintillation fluid (4 g/I omnifluor in toluene). All assays were carried out in triplicates and with three independent enzyme preparations. Controls for the efficiency of precipitation of cAMP and of AMP were always included. When assaying yeast cell extracts, control lysates from the PDE deletion strains transfected with empty vector was used as a background control. […] Inhibitors were dissolved in DMSO or ethanol, and the final concentration of the solvent never exceeded 1% in the assays reaction. Incubation times and enzyme concentrations were always adjusted so that less than 30% of the input substrate was hydrolyzed (2-5 μg total protein/100 μl assay). IC50 values were calculated by curve fitting on a four parameter dose-response model with variable slope, using the Prism software package of Graph Pad Inc., San Diego, Calif.

PDE 10 = conditions: read-out: PDE Selectivity (IC50); cited from earlier work
PDE 3 = conditions: read-out: PDE Selectivity (IC50); cited from earlier work
human PDE8A [3] = target: T2, human PDE8A (Homo sapiens, UniProt O60658); test: Activity of sf9 expressed PDE8A, undigested or trypsin digested; format: biochemical; design: made in house; host or cells: Sf9 insect cells (supernatant of cell extract); conditions: undigested PDE8A
Protocol: (§1) Briefly, human PDE8A was expressed in Sf9 cells (ATCC, Manassas, Va.). […] The supernatant (10^6 cells/digestion) was isolated and digested with the indicated amounts of trypsin at the indicated times at 30° C. The digestion was stopped with a 100-fold excess of soybean trypsin inhibitor. The activity was assayed with 1 μM cAMP. […] The digested PDE8A was analyzed by Western blot analysis using a peptide antibody specific to the C-terminus (PIL13) or the P4G7 monoclonal antibody.
Target sequence in this assay (O60658 285-829): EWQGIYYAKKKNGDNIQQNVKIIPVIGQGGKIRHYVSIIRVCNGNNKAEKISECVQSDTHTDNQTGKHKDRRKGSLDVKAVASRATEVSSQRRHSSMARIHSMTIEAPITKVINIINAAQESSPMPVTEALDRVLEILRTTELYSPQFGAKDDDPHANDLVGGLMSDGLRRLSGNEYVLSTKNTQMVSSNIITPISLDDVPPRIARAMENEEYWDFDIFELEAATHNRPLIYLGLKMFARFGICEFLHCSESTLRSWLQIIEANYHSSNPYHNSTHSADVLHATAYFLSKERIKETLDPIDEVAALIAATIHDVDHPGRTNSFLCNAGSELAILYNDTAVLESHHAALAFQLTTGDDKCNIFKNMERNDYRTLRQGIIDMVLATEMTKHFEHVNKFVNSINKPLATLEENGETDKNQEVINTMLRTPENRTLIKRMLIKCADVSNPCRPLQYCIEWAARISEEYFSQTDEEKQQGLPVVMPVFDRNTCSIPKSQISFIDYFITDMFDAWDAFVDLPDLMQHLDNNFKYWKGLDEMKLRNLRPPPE

PDE8A [4] = test: PDE activity of monoQ HPLC fractions of hut78 cells containing only PDE8A; format: biochemical, human; conditions: 0.01 μM cAMP
Protocol: (§2) Since pure CD4^+ T cells can only be obtained in limited quantities, a human CD4^+ T cell line, hut78, (ATCC, Manassas, Va.), was used to study the activity of PDE8A. Hut78 cells (2×10^8) were resuspended in 20 mM Tris pH 7.5 buffer containing protease inhibitors (Boehringer Mannheim, Indianapolis, Ind.) and sonicated. The supernatant was removed after centrifugation at 15000×g for 10 minutes and applied to a Mono Q column attached to a Rainin Dynamax HPLC system (Ameryville, Calif.). A NaCl gradient (0-0.8M) was passed through the column and 250 uL fractions were collected. The fractions were assayed for activity using either 1 μM or 0.01 μM cAMP as substrate and the indicated concentration of inhibitor (FIG. 5). Western blot analysis was also performed (10 μL/well) using PDE7A or 8A antibodies.

PDE8A [5] = test: Activity of immunoprecipitated PDE8A from Hut78 or CD4+ cells; format: biochemical, human
Protocol: Hut78 or CD4^+ cells were harvested at various points after stimulation with CD3 and CD28 antibodies. Cells were resuspended in IP buffer (20 mM Tris pH7.5, 100 mM NaCl, 1 mM benzamidine, 1 μg/mL leupeptin, 1 μg/mL pepstatin, 50 mM NaF, 2 mM EDTA) and sonicated. The cells were centrifuged at 15000×g for 10 minutes. The supernatant was precleared for 2 hours with 0.5 μg mouse IgG and 10 μL protein-G agarose (Santa Cruz Biotechnology, Santa Cruz, Calif.). PDE8A monoclonal antibody was preloaded onto 10 μL protein G-agarose and added to the precleared supernatant. The immunoprecipitations were agitated overnight at 4° C. and the beads washed three times with IP buffer containing 1M NaCl followed by one wash with IP buffer.

PDEs (Non-selective) = conditions: read-out: PDE Selectivity (IC50); cited from earlier work
PDE8A [6] = conditions: Fisher et al. 1998; cited from earlier work
human PDE8A [7] = target: T2, human PDE8A; test: Activity of sf9 expressed PDE8A, undigested or trypsin digested; format: biochemical; design: human PDE8A was expressed in Sf9 cells (ATCC, Manassas, Va.); This PDE8A was already N-terminally truncated at position 285; fused on or other part: N-terminal FLAG tag ([…]...) on the undigested construct; conditions: trypsin digested PDE8A; at 1 μM IBMX
Protocol: as §1
Target sequence in this assay (O60658 whole entry): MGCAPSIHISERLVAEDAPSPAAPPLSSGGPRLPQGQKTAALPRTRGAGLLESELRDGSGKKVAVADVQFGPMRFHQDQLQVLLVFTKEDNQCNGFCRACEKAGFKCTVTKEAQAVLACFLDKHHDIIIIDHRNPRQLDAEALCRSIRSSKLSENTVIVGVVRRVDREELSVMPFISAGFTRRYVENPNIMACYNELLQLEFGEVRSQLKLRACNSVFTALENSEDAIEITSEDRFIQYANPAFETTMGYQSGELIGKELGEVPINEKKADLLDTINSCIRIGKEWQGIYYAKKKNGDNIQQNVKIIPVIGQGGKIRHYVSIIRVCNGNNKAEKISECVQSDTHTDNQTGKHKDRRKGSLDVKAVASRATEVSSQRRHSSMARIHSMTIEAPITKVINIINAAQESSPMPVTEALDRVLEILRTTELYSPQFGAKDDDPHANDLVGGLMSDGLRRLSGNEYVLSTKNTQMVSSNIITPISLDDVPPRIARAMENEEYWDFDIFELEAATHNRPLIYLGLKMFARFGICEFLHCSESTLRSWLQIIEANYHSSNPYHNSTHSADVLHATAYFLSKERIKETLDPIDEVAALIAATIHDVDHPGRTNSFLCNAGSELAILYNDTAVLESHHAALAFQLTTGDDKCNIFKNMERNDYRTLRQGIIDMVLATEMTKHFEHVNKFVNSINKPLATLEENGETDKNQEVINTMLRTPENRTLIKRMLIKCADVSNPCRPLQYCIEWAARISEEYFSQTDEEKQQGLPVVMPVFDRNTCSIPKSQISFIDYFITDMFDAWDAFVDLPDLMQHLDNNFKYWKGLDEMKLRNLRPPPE

[8] = system: PDE8A and PDE7A from hut78 cells; test: PDE activity of monoQ HPLC fractions of hut78 cells, low Km peak; format: biochemical, human; conditions: 0.01 μM cAMP; 10 μM rolipram or 100 μM IBMX
Protocol: as §2

TbPDE2C = test: Recombinant TbPDE2C expressed in S. cerevisiae; format: biochemical, Trypanosoma brucei
From the text: We also have expressed a second family member, TbPDE2C, as a recombinant protein in the yeast S. cerevisiae and have characterized it was previously done for TbPDE2A.

TbPDE2A [9] = target: T1, TbPDE2A; conditions: Table 2, from reference; cited from earlier work
[10] = full-size TbPDE2A, yeast lysates, 1 μM cAMP

T1 sequence (Q9GTN9 entry or part of it): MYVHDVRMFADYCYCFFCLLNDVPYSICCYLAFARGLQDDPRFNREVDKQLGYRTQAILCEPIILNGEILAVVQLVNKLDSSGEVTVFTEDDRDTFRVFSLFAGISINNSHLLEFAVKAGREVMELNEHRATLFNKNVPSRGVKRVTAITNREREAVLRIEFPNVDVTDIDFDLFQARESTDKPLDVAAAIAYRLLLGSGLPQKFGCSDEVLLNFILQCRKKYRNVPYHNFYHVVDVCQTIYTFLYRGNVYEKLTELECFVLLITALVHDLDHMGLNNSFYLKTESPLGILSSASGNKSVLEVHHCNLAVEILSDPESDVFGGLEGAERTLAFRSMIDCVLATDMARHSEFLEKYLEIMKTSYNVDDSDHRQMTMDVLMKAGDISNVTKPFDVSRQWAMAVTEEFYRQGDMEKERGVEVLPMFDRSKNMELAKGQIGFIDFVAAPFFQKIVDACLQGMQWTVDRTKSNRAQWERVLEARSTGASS
TbPDE2B, sequence (Q9GQU6 entry or part of it): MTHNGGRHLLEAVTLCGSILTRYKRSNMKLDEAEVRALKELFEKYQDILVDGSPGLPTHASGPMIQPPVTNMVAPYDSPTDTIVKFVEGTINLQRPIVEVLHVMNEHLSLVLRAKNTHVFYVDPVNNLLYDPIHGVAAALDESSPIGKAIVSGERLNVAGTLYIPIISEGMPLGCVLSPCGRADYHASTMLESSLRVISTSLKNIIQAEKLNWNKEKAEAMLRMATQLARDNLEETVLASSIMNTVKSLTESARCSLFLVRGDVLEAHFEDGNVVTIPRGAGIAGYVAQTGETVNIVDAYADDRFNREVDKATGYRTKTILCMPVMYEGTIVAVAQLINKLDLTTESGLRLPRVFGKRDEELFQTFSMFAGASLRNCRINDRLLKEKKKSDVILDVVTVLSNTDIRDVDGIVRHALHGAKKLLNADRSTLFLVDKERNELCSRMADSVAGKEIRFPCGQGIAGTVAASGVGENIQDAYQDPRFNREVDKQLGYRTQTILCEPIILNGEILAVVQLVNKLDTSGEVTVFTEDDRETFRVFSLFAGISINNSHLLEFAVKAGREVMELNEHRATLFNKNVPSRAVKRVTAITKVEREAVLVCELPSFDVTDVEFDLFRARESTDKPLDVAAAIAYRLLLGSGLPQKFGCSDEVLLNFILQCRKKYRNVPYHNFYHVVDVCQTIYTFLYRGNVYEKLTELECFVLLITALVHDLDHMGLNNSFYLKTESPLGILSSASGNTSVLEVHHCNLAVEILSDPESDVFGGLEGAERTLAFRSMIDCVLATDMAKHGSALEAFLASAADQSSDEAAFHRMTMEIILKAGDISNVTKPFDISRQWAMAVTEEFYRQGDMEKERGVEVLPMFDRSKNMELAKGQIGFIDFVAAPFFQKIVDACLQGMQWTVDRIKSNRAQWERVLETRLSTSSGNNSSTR

OCCN(CCO)c1nc(N2CCCCC2)c2nc(N(CCO)CCO)nc(N3CCCCC3)c2n1 [Dipyridamole, dipyridamole]
IC50 (TbPDE2B): 27 µM
IC50 (PDE 8): 4.5 µM
IC50 (PDE 6): 0.38 µM
total PDE activity [1]: marked, if not complete, reduction
IC50 (TbPDE2A [2]; [10]): 5.8 µM and 5.9 µM
IC50 for TbPDE2A (μM) (TbPDE2A [2]; [10]): low micromolar range
IC50 (PDE 10): 1.1 µM

CSc1ccc(C(=O)c2[nH]c(=O)[nH]c2C)cc1 [Enoximone, enoximone]
IC50 (TbPDE2B): > 100 µM
inhibition of recombinant TbPDE2B, in words (TbPDE2B): No IC50 could be obtained
IC50 (PDE 3): 1 µM

CC(C)Cn1c(=O)n(C)c(=O)c2[nH]cnc21 [IBMX, 3-Isobutyl-1-methylxanthine]
IC50 (TbPDE2B): > 1000 µM
inhibition of recombinant TbPDE2B, in words (TbPDE2B): extremely low sensitivity
IBMX inhibition of undigested PDE8A (human PDE8A [3]): resistant
activity of undigested PDE8A (human PDE8A [3]; at 1 μM IBMX): unchanged
activity of fractions that contained only PDE8A (PDE8A [4]): inhibited
immunoprecipitated PDE8A activity from hut78 cells (PDE8A [5]; 100 μM IBMX, FIG. 6A): inhibited
increase in immunoprecipitated PDE8A activity after activation (PDE8A [5]; CD4+ T cells): could be inhibited
IC50 (PDEs (Non-selective)): 2 to 50 µM
sensitivity of recombinant expressed PDE8A (PDE8A [6]): resistant
activity retained (human PDE8A [7]): 40%
effectiveness on TbPDE2A, in words (TbPDE2A [2]): not effective
effect on TbPDE2A activity in initial screening (TbPDE2A [2]; 100 μM inhibitor, 1 μM cAMP, FIG. 26): ineffective
IC50 (TbPDE2A [2]; [10]): 545 µM
sensitivity of the PDE activity peak [8]: sensitive

Nc1nc2c(ncn2[C@@H]2O[C@@H]3COP(=O)(O)O[C@H]3[C@H]2O)c(=O)[nH]1 [cGMP]
inhibition of recombinant TbPDE2B, in words (TbPDE2B): not stimulated or inhibited
IC50 (TbPDE2B; Substrate concentration 1 μM [3H]-cAMP, read-out: TbPDE2B IC50 (μM) (n = 3)): > 200 µM
effect on activity of TbPDE2C (TbPDE2C): does not affect the activity
cAMP hydrolysis by TbPDE2A in the presence of cGMP (TbPDE2A [2]; 100-fold excess of cGMP, full-size and truncated constructs): unaffected
IC50 (TbPDE2A [9]): > 100 µM
